Source: patent publication US20070004715A1, “Novel spiro-quinuclidinyl derivatives for the treatment of central nervous system disorders” (priority 2005, published 2007)
Counter-ions that a name gives are not always drawn. Like-named read-outs stand apart in the source and are kept apart here.

Tests used:
[1] = test system: Synaptosomes from guinea pig hippocampus; experiment: % Inhibition of AcH Release Assay (K+-evoked 3H-acetylcholine release); assay type: cell-based; conditions: synaptosomes pre-treated with 10 μM test compound prior to 65 mM K+ stimulation
Method: Synaptosomes from guinea pig hippocampus were incubated with 0.1 μM ^3H-choline and then subjected to repeated washes with buffer to remove unincorporated ^3H-choline. The synaptosomes were then treated with 65 mM K^+ for 30 seconds to elicit 3H-acetylcholine release.
To determine if a test compound will inhibit acetylcholine release, the synaptosomes were pre-treated with 10 μM of the test compound prior to the K+ stimulation. The decrease or increase in acetylcholine release was then measured by superfusion.
(§1) Both the Aβ aggregation assay as described in Example 55, particularly as run using the ^125I-Aβ1-40, and the % inhibition of AcH release assay as described in Example 56, were highly variable on a run-to-run basis. However, the relative activities of the tested compounds were reproducible.

fluo-Aβ1-40 = target: T1, fluo-Aβ1-40 (Homo sapiens, UniProt P05067); experiment: Aβ Aggregation Assay (Synthaloid plates, fluo-Aβ1-40); assay type: biochemical; conditions: 10 μM test compound, 100 nM fluo-Aβ1-40, 2.5 hr at room temperature; higher % = greater effectiveness at preventing aggregation
T1 construct: added 100 nM of fluo-Aβ1-40 in 100 μl
Method: Aβs are known to form aggregates leading to the formation of amyloid plaques that are characteristic of Alzheimer's disease.
This aggregation assay was validated using both ^125I-Aβ1-40 and fluo-Aβ1-40 in a buffer containing 50 mM HEPES, pH 7.4, 0.1% BSA, 10% FCS and protease inhibitors.
To each well of a 96-well Synthaloid plate was added 100 nM of fluo-Aβ1-40 in 100 μl. To each well was then added 10 μM of test compound. The plate was then allowed to incubate for 2.5 hr at room temperature. At the end of the incubation, unbound protein in the wells was removed by three washes using the buffer as described above. The amount of bound protein (which represents the amount of Aβ aggregation) was measured either by fluorescence measurements.
Higher fluorescence values relative to vehicle wells were interpreted as an indication of greater Aβ aggregation. […] Higher % values in the data in Table 4 below, below indicates greater effectiveness at preventing aggregation.
as §1

[2] = target: T2, M1 muscarinic receptor (M1 human CHO receptor membranes) (Homo sapiens, UniProt P11229); experiment: M1 Muscarinic Receptor % Inhibition Assay (SPA, tritiated scopolamine); assay type: binding
T2 construct: purchased Amersham 6110503; host or cells: CHO cell membranes
T2 sequence (P11229 1-460): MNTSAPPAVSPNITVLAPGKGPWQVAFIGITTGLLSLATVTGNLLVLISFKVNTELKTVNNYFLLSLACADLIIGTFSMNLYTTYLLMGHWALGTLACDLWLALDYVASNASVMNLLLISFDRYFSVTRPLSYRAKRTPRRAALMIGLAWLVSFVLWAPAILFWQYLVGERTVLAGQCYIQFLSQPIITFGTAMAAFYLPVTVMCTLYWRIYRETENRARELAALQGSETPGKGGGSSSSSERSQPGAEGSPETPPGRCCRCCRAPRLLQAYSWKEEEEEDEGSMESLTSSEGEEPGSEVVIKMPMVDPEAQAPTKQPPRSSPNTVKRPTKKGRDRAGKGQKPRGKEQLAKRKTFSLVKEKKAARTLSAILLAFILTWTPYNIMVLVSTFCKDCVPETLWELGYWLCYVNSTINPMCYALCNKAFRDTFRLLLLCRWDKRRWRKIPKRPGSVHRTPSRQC

[3] = test system: Synaptosomes from guinea pig hippocampus; conditions: peptide at 100 μM; 'known to' inhibit release; cited from earlier work

T1 sequence (P05067 672-711): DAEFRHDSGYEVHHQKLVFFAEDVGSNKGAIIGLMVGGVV

Molecule	Inhibition of acetylcholine release [1]	Aβ aggregation inhibition (%) (fluo-Aβ1-40)	% Inhibition @1 μM ([2]; 1 μM compound)	% Inhibition @10 μM ([2]; 10 μM compound)	Inhibition of acetylcholine release [3]
N=C1CC2(CN3CCC2CC3)OC(=O)N1c1ccc(Cl)c(Cl)c1 (centres unmarked) [Compound 104, 3′-(3,4-dichlorophenyl)-quinuclidine-3-spiro-4′-iminooxan-2-ones trifluoroacetate salt]	43%	0%	–	–	–
Cc1cc(C)cc(N2C(=N)CC3(CN4CCC3CC4)OC2=O)c1 (centres unmarked) [Compound 106, 3′-(3,5-dimethylphenyl)-quinuclidine-3-spiro-4′-iminooxan-2-ones trifluoroacetate salt]	18%	80%	–	–	–
N=C1CC2(CN3CCC2CC3)OC(=O)N1c1cc(Cl)cc(Cl)c1 (centres unmarked) [Compound 107, 3′-(3,5-dichlorophenyl)-quinuclidine-3-spiro-4′-iminooxan-2-ones trifluoroacetate salt]	54%	30%	–	–	–
N=C1CC2(CN3CCC2CC3)OC(=O)N1c1cccc(Cl)c1 (centres unmarked) [Compound 108, 3′-(3-chlorophenyl)-quinuclidine-3-spiro-4′-iminooxan-2-ones trifluoroacetate salt]	63%	70%	–	–	–
Cc1ccc(N2C(=N)CC3(CN4CCC3CC4)OC2=O)cc1Cl (centres unmarked) [Compound 109, 3′-(3-chloro-4-methylphenyl)-quinuclidine-3-spiro-4′-iminooxan-2-ones trifluoroacetate salt]	33%	80%	90%	98%	–
Aβ1-40: β-amyloid peptide 1-40, known to inhibit acetylcholine release from synaptosomes	–	–	–	–	33%
Aβ1-42: β-amyloid1-42 peptide, forms oligomers, fibrils and amyloid plaques	–	–	–	–	33%
